From ChEMBL document CHEMBL4507276 (2021)

Assays:
[1] = target: Tyrosine-protein kinase SYK (Homo sapiens) (UniProt P43405); conditions: Compound concentration 1000.0 nM
[2] = target: Proto-oncogene tyrosine-protein kinase ROS (Homo sapiens) (UniProt P08922); conditions: Compound concentration 1000.0 nM
[3] = target: Ephrin type-A receptor 3 (Homo sapiens) (UniProt P29320); conditions: Compound concentration 1000.0 nM
[4] = target: Tyrosine-protein kinase JAK1 (Homo sapiens) (UniProt P23458); conditions: Compound concentration 1000.0 nM
Sequence of Tyrosine-protein kinase JAK1 (Homo sapiens) (P23458 whole entry): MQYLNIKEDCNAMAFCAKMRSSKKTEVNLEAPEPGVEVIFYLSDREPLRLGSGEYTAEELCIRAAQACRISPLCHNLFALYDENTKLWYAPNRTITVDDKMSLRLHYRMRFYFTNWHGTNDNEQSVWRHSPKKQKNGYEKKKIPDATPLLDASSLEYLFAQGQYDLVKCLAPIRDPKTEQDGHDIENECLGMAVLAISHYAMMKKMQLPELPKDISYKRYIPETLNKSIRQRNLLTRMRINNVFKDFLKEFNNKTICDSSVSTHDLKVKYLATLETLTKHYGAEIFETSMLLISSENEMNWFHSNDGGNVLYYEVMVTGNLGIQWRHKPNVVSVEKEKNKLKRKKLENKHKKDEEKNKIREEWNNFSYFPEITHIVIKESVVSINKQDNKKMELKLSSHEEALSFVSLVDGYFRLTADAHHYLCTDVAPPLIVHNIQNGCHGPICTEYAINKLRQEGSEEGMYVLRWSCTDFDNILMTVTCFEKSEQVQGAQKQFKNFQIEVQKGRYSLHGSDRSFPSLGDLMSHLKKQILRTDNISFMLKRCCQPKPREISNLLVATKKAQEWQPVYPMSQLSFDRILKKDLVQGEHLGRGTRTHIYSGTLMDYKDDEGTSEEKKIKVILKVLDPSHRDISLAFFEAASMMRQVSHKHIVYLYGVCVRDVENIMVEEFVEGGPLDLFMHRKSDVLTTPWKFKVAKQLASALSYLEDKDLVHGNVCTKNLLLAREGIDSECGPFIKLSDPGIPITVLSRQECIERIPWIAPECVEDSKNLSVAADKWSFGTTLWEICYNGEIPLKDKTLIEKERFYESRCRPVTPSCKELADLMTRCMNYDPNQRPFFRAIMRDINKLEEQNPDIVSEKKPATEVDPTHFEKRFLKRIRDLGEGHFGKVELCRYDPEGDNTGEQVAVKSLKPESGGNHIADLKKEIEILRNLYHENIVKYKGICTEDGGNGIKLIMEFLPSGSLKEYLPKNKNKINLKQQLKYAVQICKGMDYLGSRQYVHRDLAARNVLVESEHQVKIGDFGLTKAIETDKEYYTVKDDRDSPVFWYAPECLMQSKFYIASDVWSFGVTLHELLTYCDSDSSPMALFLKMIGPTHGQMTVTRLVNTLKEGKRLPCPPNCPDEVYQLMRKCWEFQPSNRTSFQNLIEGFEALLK

[5] = target: Serine/threonine-protein kinase mTOR (Homo sapiens) (UniProt P42345); conditions: Compound concentration 1000.0 nM
[6] = target: BDNF/NT-3 growth factors receptor (Homo sapiens) (UniProt Q16620); conditions: Compound concentration 1000.0 nM
Sequence of BDNF/NT-3 growth factors receptor (Homo sapiens) (Q16620 32-822 limits assumed): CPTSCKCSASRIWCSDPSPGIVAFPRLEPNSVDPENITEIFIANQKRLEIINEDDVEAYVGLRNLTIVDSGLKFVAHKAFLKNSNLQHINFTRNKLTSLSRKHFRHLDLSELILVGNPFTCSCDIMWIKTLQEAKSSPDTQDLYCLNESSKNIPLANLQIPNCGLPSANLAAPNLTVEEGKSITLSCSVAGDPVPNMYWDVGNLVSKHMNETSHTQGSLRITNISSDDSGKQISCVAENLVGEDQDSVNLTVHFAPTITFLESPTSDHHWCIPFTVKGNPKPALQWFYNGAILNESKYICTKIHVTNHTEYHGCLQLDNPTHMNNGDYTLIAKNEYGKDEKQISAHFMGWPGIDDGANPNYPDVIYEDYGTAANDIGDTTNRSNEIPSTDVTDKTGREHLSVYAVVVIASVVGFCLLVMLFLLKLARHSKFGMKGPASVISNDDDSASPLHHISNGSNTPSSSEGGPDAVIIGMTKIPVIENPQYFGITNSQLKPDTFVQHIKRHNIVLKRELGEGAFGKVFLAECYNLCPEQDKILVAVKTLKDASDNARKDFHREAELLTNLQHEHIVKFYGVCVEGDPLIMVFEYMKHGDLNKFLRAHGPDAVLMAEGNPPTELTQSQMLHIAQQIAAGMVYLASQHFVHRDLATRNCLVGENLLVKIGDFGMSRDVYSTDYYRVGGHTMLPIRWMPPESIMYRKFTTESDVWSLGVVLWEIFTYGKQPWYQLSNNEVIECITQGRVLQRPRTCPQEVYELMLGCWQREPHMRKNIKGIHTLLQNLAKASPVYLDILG

[7] = target: Serine/threonine-protein kinase RIO3 (Homo sapiens) (UniProt O14730); conditions: Compound concentration 1000.0 nM
[8] = target: Dual specificity tyrosine-phosphorylation-regulated kinase 1A (Homo sapiens) (UniProt Q13627); conditions: Compound concentration 1000.0 nM
[9] = target: Mitogen-activated protein kinase kinase kinase 4 (Homo sapiens) (UniProt Q9Y6R4); conditions: Compound concentration 1000.0 nM
[10] = target: Bone morphogenetic protein receptor type-1A (Homo sapiens) (UniProt P36894); conditions: Compound concentration 1000.0 nM
[11] = target: Mitogen-activated protein kinase 14 (Homo sapiens) (UniProt Q16539); conditions: Compound concentration 1000.0 nM
[12] = target: Serine/threonine-protein kinase pim-1 (Homo sapiens) (UniProt P11309); conditions: Compound concentration 1000.0 nM
Sequence of Serine/threonine-protein kinase pim-1 (Homo sapiens) (P11309 whole entry, looked up): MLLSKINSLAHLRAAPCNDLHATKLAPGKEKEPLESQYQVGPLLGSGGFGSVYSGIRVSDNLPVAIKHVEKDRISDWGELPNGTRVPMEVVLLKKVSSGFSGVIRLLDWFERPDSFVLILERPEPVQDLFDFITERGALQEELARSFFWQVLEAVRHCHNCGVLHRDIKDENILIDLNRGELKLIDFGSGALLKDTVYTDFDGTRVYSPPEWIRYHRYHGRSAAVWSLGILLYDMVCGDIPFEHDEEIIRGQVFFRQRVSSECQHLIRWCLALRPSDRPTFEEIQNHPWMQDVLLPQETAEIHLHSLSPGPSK

[13] = target: SRSF protein kinase 2 (Homo sapiens) (UniProt P78362); conditions: Compound concentration 1000.0 nM
[14] = target: Peripheral plasma membrane protein CASK (Homo sapiens) (UniProt O14936); conditions: Compound concentration 1000.0 nM
Sequence of Peripheral plasma membrane protein CASK (Homo sapiens) (O14936 whole entry, canonical isoform): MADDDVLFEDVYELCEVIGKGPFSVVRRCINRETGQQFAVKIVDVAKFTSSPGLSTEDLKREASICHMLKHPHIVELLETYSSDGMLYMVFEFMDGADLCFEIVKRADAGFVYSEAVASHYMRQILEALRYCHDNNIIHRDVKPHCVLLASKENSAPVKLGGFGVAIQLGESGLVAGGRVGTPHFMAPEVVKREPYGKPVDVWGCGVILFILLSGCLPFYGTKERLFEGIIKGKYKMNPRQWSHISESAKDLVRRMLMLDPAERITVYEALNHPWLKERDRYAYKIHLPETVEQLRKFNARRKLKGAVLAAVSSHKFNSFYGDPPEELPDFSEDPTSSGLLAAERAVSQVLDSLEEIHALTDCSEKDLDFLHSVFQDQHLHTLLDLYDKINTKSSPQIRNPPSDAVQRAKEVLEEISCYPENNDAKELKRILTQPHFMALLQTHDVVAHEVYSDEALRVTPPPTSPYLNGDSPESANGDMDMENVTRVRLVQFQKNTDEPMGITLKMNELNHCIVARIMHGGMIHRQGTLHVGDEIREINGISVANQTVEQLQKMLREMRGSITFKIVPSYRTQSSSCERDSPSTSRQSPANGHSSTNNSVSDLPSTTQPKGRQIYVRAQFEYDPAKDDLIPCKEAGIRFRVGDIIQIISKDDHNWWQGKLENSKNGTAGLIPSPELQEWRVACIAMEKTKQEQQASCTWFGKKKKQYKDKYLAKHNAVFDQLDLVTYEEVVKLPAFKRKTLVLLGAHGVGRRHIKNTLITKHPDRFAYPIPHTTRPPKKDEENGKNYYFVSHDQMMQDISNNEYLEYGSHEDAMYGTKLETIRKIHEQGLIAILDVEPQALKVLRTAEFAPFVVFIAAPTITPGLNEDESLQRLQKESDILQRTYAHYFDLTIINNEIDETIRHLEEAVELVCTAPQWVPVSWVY

[15] = target: Casein kinase I isoform gamma-2 (Homo sapiens) (UniProt P78368); conditions: Compound concentration 1000.0 nM
[16] = system: Tyrosine-protein kinase ABL1 (Homo sapiens), P00519 [F317I]; conditions: Compound concentration 1000.0 nM
[17] = target: Serine/threonine-protein kinase PLK3 (Homo sapiens) (UniProt Q9H4B4); conditions: Compound concentration 1000.0 nM
Sequence of Serine/threonine-protein kinase PLK3 (Homo sapiens) (Q9H4B4 whole entry, looked up): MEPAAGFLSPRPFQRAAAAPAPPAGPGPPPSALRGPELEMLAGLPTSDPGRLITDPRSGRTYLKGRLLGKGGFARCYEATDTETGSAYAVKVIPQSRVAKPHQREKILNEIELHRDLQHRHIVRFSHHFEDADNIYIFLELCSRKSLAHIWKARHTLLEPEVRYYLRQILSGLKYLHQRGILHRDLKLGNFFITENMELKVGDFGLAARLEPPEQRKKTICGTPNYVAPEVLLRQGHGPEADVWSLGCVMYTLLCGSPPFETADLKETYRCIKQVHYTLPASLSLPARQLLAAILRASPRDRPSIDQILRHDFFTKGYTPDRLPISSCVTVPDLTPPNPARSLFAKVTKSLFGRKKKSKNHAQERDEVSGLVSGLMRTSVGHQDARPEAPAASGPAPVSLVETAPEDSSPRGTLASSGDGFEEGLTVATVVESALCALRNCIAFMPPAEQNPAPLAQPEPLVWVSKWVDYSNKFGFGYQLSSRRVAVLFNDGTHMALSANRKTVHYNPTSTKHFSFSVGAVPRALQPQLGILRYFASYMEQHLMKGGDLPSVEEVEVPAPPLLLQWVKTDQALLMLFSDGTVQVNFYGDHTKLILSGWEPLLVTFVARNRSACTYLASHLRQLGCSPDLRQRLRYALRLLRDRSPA

[18] = target: T1, Serine/threonine-protein kinase TAO3 (Homo sapiens) (UniProt Q9H2K8); conditions: Compound concentration 1000.0 nM
T1 sequence (whole entry): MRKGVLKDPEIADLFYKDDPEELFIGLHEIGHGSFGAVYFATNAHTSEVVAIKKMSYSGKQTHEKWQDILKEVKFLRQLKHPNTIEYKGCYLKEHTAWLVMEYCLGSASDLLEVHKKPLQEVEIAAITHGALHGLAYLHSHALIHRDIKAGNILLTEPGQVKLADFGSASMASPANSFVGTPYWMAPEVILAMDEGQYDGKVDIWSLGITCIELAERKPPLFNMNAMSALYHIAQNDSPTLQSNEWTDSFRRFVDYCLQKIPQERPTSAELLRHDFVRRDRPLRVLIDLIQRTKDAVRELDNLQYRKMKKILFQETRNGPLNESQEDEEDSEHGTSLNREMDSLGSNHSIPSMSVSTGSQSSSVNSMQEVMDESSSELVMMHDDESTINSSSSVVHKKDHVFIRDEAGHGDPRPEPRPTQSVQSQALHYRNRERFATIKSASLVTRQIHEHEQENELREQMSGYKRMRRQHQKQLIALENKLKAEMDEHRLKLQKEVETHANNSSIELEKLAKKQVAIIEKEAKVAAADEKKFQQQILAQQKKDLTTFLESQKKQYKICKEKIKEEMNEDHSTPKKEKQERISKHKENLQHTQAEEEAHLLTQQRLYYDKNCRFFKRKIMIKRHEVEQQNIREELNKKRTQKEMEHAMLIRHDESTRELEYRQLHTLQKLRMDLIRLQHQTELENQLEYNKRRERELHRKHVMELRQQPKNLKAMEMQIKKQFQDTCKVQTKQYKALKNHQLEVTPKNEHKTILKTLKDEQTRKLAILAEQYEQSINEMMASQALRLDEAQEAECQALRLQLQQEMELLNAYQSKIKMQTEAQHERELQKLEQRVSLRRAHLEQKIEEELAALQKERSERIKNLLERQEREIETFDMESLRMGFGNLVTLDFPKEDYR

[19] = system: Phosphatidylinositol 4,5-bisphosphate 3-kinase catalytic subunit alpha isoform (Homo sapiens), P42336 [E545A]; conditions: Compound concentration 1000.0 nM
[20] = target: Death-associated protein kinase 2 (Homo sapiens) (UniProt Q9UIK4); conditions: Compound concentration 1000.0 nM
[21] = target: Histamine H4 receptor (Homo sapiens) (UniProt Q9H3N8); conditions: Compound concentration 10.0 uM
Sequence of Histamine H4 receptor (Homo sapiens) (Q9H3N8 whole entry): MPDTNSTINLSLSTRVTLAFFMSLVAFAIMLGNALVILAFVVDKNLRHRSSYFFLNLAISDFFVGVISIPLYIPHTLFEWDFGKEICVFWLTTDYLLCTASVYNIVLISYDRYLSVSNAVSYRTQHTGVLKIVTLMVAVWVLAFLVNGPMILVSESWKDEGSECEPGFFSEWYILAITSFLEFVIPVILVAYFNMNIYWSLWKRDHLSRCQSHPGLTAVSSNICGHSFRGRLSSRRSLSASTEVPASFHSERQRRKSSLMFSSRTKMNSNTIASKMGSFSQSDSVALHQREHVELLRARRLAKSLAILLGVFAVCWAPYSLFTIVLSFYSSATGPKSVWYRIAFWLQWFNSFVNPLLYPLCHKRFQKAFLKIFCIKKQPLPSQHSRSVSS

[22] = target: Cyclin-dependent kinase 11B (Homo sapiens) (UniProt P21127); conditions: Compound concentration 1000.0 nM
Sequence of Cyclin-dependent kinase 11B (Homo sapiens) (P21127 whole entry): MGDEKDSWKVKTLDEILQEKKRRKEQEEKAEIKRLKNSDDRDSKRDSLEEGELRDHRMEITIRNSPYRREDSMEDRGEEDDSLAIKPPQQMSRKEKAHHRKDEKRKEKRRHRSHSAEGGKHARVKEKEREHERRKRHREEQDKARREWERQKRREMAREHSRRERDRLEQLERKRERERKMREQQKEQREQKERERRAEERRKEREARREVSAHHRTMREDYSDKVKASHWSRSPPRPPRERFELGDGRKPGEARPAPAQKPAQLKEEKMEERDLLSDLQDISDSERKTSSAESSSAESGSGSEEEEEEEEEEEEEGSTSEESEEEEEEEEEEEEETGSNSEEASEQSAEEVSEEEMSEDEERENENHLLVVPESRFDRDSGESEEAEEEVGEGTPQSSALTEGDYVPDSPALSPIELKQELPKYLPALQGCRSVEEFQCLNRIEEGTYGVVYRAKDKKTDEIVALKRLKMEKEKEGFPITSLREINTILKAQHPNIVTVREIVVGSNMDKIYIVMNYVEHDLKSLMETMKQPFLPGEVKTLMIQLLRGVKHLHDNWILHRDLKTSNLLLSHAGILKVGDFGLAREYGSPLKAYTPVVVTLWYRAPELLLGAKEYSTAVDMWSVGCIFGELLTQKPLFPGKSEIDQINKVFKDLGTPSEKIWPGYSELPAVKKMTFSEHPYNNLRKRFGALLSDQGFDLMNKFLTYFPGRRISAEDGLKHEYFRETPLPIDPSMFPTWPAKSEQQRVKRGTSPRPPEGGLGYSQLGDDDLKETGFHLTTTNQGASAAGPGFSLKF

[23] = target: Dual specificity protein kinase CLK2 (Homo sapiens) (UniProt P49760); conditions: Compound concentration 1000.0 nM
[24] = system: Phosphatidylinositol 4,5-bisphosphate 3-kinase catalytic subunit alpha isoform (Homo sapiens), P42336 [M1043I]; conditions: Compound concentration 1000.0 nM

Row | Compound | residual activity [1] | residual activity [2] | residual activity [3] | residual activity [4] | residual activity [5] | residual activity [6] | residual activity [7] | residual activity [8] | residual activity [9] | residual activity [10] | residual activity [11] | residual activity [12] | residual activity [13] | residual activity [14] | residual activity [15] | residual activity [16] | residual activity [17] | residual activity [18] | residual activity [19] | residual activity [20] | further results
1 | CN(C)C(=O)Cn1cc(-c2nc(C3(c4ccc(-c5cnc(N)nc5)cc4)CC3)no2)cn1 [BI 0153] | 77% | 87% | 89% | 100% | 91% | 100% | 89% | 66% | 92% | 87% | 100% | 100% | 91% | 76% | 82% | 90% | 89% | 67% | 99% | 86% | inhibition [21]: 36.6%; residual activity [22]: 96%; residual activity [23]: 94%; residual activity [24]: 100%
2 | CN(C)C(=O)Cn1cc(-c2nc([C@@](C)(c3ccc(-c4cnc(N)nc4)cc3)C3CC3)no2)cn1 [BI 665915] | 73% | 88% | 100% | 33% | 100% | 81% | 100% | 73% | 91% | 100% | 90% | 100% | 100% | 82% | 100% | 100% | 89% | 89% | 75% | 100% | inhibition [21]: 55.2%; residual activity [22]: 79%; residual activity [23]: 96%; residual activity [24]: 100%
